Ki data for 16 compounds are collected here from BindingDB's records for PubMed 1347569 (Stanford University, 1992).

The target in experiment [1] is T1, 5-hydroxytryptamine receptor 2C (Rattus norvegicus, UniProt P08909).
T1 sequence (P08909 whole entry): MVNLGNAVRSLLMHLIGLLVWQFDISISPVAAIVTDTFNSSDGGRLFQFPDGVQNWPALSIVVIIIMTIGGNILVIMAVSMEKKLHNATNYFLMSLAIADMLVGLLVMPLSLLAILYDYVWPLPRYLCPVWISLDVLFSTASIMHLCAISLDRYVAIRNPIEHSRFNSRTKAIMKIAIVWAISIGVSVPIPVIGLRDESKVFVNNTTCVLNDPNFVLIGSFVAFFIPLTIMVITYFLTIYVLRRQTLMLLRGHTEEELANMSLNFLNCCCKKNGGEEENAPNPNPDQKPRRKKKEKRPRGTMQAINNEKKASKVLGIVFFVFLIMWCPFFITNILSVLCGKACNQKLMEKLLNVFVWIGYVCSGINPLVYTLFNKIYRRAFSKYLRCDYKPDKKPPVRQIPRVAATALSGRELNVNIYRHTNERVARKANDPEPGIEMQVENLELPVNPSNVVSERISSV

Experiment [2] concerns the target 5-hydroxytryptamine receptor 2A (Rattus norvegicus, UniProt P14842).

Where a name gives a salt, the structure may show the parent alone.

One may read the Ki as the dissociation constant of the complex between target and ligand, obtained from inhibition or displacement.

Sequence of 5-hydroxytryptamine receptor 2A (P14842 whole entry): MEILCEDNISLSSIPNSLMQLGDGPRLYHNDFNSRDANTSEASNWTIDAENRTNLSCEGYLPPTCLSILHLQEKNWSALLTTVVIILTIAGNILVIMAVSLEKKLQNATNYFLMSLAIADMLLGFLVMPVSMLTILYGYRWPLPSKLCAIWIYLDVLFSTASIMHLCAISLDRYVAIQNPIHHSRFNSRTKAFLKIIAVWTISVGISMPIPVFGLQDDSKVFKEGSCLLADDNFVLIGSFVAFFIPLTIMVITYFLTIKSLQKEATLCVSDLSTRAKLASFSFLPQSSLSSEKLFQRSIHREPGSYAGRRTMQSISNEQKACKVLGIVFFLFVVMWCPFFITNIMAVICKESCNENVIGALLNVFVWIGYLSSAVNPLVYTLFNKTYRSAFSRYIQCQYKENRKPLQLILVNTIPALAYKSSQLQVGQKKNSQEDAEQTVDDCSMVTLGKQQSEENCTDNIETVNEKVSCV

For the compound `CN1CCN(C2=Nc3cc(F)ccc3Cc3ccccc32)CC1`, the inhibition constant (Ki) was 18.2 nM in experiment [1] and 7.9 nM in experiment [2].
On to `CN1CCCCC1CCN1c2ccccc2Sc2ccc([S+](C)[O-])cc21` (stereo unspecified), for which the Ki worked out at 79 nM in experiment [1] and 6.3 nM in experiment [2].
In the case of `O=c1[nH]c2ccccc2n1CCCN1CCC(n2c(=O)[nH]c3cc(Cl)ccc32)CC1`, the Ki was above 10000 nM in experiment [1] and 294 nM in experiment [2].
In experiment [1], `CCNC(=O)N1CCN(CCCC(c2ccc(F)cc2)c2ccc(F)cc2)CC1` came in with a Ki of 1150 nM.
In the case of `O=c1[nH]c2ccccc2n1C1CCN(CCCC(c2ccc(F)cc2)c2ccc(F)cc2)CC1` [1-(1-(4,4-bis(4-fluorophenyl)butyl)piperidin-4-yl)-1H-benzo[d]imidazol-2(3H)-one], the Ki is above 10000 nM in experiment [1] and 7.9 nM in experiment [2].
Taken in the same sequence, the figures for `c1ccc2nc(N3CCNCC3)ccc2c1` [2-Piperazin-1-yl-quinoline (Quipazine)] were 336 nM and 613 nM.
In turn, `O=C(c1ccc(F)cc1)C1CCN(CCn2c(=O)[nH]c3ccccc3c2=O)CC1` [3-(2-{4-[(4-fluorophenyl)carbonyl]piperidin-1-yl}ethyl)-1,2,3,4-tetrahydroquinazoline-2,4-dione] registered an inhibition constant (Ki) in experiment [1] of 28.5 nM.
On to `CCN(CC)CCNC(=O)c1cc(Cl)c(N)cc1OC` [4-amino-5-chloro-N-[2-(diethylamino)ethyl]-2-methoxy-benzamide;hydrochloride], for which the Ki in experiment [1] was above 10000 nM.
`OCCN1CCN(CC/C=C2/c3ccccc3Sc3ccc(C(F)(F)F)cc32)CC1` [(cis) 2-{4-[3-(2-Trifluoromethyl-thioxanthen-9-ylidene)-propyl]-piperazin-1-yl}-ethanol(Flupentixol)]: the Ki stood at 102 nM in experiment [1] and 2 nM in experiment [2].
In experiment [1], `CC1CCN(CCCC(=O)c2ccc(F)cc2)CC1` [CAS_3575-80-2] returned a Ki of 1340 nM.
On to `CN1CCN(C2=Cc3cc(Cl)ccc3C(=CC#N)c3ccccc32)CC1` [CAS_79781-95-6], for which the results for the Ki in experiment [1] and in experiment [2] were 23 nM and 0.79 nM, respectively.
In the case of `Clc1cncc(N2CCNCC2)n1` [L-630,571], the Ki was 255 nM in experiment [1] and above 10000 nM in experiment [2].
For `CN1CCN(CC/C=C2/c3ccccc3Sc3ccc(S(=O)(=O)N(C)C)cc32)CC1` [MLS000028463], in experiment [1], affinity was put at a Ki of 1550 nM.
Regarding `CN1CCN(C2=Nc3cscc3C(=CC#N)c3cscc32)CC1` [NSC_3086153], the Ki in experiment [1] came to 62 nM; in experiment [2], 39.8 nM.
Taken in the same sequence, the figures for `CN1CCc2cc(Cl)c(O)cc2[C@@H](c2ccccc2)C1` [SCH 23390,R(+)] were 13.4 nM and 19.9 nM.
In experiment [1], `O=C1CC2(CCCC2)CC(=O)N1CCCCN1CCN(c2nsc3ccccc23)CC1` [TIOSPERONE] showed a Ki of 9.7 nM.
